In patent US11304919B2, “Utilization of cilastatin in inhibiting renal disorder” (NIIGATA UNIVERSITY, priority 2018, dated 2022):

Target: megalin (Rattus norvegicus, UniProt P98158)
Assay: Direct binding of contrast solid-phased magnetic beads to megalin in brush border proteins, WB with anti-megalin antibody (Reference Example 4)
Design: the cortex portions of Sprague-Dawley (SD) rats were ground to prepare a suspension; from tissue; host or cells: Sprague-Dawley rat kidney cortex (brush border proteins, method of Orlando et al.)
Details: 0 mM and 10 mM iomeprol solid-phased beads; rat BBP 1 mg/mL; 4° C., 4 h; FIG. 20
Method: Direct binding between an iodinated contrast medium and megalin was verified using contrast solid-phased magnetic beads.
A starting powder of iodinated contrast medium was dissolved, just before use, in glycidylmethacrylate-coated magnetic beads (FG Beads®, particle size: 0.2 μm, produced by Tamagawa Seiki Co., Ltd.) to initiate chemical bonding between surface carboxyl groups and hydroxyl groups present in the contrast medium, whereby contrast solid-phased magnetic beads were prepared.
The contrast medium iomeprol was purchased from BOC Science.
At feed concentrations of 0 mM, 3 mM and 10 mM, iomeprol was brought to a solid phase by chemical bonding. The preparation of the iomeprol solid-phased beads was contracted to Tamagawa Seiki Co., Ltd.
According to the method of Orlando, et al. (Proc. Natl. Acad. Sci. USA, 1992, vol. 89, p. 6698-6702), the cortex portions of Sprague-Dawley (SD) rats were ground to prepare a suspension, which was adjusted to a protein concentration of 1 mg/mL to obtain a BBP solution.
Five milligrams each of the 0 mM and 10 mM contrast solid-phased magnetic beads were dispersed and washed in 200 μL of 100 mM KCL buffer (20 mM HEPES-NaOH (pH 7.9), 100 mM KCl, 1 mM MgCl2, 0.2 mM CaCl2), 0.2 mM EDTA, 10% (v/v) glycerol, 0.1% NP-40, 1 mM DTT, 0.2 mM PMSF). […]

Sequence of megalin (P98158 26-4660): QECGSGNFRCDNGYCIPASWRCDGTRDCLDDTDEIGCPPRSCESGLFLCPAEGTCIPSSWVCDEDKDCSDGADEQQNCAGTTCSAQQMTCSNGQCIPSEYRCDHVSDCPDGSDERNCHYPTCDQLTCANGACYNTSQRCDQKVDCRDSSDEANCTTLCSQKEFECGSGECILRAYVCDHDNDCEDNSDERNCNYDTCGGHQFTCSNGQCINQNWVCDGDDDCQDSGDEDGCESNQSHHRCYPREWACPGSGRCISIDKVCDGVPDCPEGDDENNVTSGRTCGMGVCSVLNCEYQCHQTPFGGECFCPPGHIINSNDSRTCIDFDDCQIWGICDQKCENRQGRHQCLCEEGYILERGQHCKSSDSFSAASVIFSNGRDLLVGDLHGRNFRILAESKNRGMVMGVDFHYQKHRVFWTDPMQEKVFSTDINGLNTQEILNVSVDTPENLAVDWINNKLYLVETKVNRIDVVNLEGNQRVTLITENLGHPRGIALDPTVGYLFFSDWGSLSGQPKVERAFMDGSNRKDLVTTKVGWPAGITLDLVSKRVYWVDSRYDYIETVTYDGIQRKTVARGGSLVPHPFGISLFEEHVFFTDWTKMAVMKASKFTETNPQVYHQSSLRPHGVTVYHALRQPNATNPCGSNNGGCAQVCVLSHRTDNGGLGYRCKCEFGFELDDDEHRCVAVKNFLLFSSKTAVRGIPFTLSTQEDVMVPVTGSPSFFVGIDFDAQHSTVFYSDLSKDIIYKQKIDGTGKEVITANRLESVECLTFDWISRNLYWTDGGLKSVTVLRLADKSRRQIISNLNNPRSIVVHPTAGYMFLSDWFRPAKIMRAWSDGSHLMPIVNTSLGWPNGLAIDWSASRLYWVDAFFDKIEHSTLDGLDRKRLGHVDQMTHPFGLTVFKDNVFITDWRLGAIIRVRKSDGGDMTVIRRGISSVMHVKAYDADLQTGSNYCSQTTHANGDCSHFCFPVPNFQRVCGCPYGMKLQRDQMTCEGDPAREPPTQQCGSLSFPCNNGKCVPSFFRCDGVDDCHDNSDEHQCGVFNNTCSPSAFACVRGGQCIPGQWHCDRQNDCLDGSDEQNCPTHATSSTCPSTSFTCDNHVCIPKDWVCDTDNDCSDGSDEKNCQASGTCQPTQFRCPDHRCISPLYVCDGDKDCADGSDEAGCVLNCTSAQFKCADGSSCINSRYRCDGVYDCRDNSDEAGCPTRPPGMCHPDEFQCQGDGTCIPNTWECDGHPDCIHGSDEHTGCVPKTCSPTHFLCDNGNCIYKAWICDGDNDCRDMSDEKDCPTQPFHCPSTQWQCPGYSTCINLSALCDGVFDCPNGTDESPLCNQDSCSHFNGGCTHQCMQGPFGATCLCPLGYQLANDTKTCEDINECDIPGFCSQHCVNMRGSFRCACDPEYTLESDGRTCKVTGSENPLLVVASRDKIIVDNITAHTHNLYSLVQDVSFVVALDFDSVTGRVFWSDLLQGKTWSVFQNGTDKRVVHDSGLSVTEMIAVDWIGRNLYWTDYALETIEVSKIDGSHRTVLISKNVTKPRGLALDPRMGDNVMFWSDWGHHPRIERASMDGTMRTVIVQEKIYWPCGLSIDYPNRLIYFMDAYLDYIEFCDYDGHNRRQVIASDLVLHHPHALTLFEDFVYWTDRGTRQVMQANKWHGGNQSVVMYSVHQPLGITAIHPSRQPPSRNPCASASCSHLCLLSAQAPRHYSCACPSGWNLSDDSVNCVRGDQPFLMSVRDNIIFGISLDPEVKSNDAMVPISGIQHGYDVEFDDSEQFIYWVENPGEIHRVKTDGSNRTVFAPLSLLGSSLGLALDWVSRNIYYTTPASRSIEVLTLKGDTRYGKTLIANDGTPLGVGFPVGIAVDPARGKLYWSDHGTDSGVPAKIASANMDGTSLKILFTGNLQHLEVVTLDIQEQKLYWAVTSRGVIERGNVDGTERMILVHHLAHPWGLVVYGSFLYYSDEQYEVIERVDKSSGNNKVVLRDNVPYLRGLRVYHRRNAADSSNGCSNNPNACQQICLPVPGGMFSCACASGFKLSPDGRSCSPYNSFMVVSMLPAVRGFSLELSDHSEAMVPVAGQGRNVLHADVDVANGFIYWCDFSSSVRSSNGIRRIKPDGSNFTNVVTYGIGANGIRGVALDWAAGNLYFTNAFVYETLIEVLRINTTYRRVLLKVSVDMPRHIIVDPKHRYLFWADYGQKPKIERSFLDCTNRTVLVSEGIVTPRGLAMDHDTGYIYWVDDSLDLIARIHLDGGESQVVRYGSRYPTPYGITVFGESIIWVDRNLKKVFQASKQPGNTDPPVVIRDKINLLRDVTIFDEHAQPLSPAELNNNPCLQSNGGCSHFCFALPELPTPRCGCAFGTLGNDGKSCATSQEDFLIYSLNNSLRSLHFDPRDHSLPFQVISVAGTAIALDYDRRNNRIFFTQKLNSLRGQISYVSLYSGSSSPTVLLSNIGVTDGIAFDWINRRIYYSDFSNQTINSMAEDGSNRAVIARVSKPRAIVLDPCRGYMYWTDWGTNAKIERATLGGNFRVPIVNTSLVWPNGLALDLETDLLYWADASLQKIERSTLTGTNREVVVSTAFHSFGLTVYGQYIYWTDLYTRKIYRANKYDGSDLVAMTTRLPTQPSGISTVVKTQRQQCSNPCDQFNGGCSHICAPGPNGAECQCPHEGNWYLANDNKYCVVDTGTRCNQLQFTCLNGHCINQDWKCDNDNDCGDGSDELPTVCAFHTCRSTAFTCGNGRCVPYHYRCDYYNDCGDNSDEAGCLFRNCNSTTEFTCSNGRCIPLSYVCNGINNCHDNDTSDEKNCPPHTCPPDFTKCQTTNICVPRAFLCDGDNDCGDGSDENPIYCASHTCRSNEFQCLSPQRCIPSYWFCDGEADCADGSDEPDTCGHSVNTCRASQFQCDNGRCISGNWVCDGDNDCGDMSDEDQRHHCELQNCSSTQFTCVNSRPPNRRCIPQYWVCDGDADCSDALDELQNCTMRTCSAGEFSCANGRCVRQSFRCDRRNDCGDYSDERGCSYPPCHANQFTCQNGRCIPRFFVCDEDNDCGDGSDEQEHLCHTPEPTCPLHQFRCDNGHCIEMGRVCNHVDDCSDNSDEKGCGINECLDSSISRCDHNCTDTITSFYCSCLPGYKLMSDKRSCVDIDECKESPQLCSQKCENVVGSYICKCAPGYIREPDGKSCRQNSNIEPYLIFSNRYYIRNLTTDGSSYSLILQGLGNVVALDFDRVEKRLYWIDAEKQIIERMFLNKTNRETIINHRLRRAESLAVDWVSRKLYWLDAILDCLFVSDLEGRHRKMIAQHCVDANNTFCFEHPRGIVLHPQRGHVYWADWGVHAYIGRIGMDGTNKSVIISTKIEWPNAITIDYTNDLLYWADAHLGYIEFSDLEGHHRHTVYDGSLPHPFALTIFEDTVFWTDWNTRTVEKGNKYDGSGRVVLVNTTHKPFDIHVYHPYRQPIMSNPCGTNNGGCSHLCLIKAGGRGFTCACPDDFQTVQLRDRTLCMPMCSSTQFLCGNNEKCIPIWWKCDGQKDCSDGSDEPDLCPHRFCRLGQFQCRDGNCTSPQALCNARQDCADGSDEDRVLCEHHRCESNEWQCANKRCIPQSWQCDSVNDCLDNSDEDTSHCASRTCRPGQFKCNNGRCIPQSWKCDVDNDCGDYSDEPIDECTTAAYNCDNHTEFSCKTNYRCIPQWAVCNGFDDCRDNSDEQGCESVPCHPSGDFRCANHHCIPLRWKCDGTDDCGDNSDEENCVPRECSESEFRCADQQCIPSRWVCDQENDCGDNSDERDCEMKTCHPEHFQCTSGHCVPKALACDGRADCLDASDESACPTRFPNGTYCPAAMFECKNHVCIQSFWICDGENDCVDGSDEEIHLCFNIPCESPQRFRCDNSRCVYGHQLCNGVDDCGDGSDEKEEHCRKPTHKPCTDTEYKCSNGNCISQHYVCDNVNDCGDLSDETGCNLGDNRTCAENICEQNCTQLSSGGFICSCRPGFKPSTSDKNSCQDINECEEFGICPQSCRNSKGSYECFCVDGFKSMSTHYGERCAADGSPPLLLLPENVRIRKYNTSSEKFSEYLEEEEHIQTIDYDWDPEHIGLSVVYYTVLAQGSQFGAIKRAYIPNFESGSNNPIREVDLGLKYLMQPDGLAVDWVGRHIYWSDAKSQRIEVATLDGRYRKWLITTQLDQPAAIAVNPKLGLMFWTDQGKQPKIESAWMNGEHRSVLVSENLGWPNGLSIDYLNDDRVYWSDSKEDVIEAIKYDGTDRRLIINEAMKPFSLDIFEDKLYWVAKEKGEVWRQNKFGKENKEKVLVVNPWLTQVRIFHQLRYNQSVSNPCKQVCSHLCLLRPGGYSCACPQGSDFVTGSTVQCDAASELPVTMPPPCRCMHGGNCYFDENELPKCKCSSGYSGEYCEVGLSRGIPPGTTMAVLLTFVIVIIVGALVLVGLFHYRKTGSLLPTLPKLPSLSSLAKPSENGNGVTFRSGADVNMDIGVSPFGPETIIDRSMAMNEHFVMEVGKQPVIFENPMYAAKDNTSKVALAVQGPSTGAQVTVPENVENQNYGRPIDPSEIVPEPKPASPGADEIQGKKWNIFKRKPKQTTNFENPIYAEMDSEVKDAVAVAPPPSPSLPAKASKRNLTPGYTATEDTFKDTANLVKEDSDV

megalin band in eluted samples after reaction of BBP with contrast medium-bound beads (WB): not detected
Compound: CN(C(=O)CO)c1c(I)c(C(=O)NCC(O)CO)c(I)c(C(=O)NCC(O)CO)c1I (stereo not shown) [iomeprol]
